In test [1] the test system is BaF3. Description: Antiproliferative activity against mouse BaF3 cells harbouring CD74-NTRK1 fusion protein incubated for 3 days by CCK8 method. The settings on record: BaF3, 72 h. For orientation: Tetrazolium dyes change colour on reduction, which living cells bring about.
Test [2] addresses High affinity nerve growth factor receptor (Homo sapiens, UniProt P04629, G667C). Description: Inhibition of TRKA G667C mutant (unknown origin) expressed in baculovirus expression system Sf9 cells using Ser/Thr 06 as peptide substrate incubated for 1 hr in presence of ATP by FRET based Z-LYTE assay.
For test [3], the target named is NT-3 growth factor receptor (Homo sapiens, UniProt Q16288). The experiment in a line: Inhibition of TRKC (unknown origin) using Ser/Thr 06 as peptide substrate incubated for 1 hr in presence of ATP by FRET based Z-LYTE assay.
Test [4] has as its system BaF3. Description: cells. Conditions: Mus musculus, BaF3, 72 h.
The target of test [5] is High affinity nerve growth factor receptor (Homo sapiens, UniProt P04629, G595R). Description: Inhibition of TRKA G595R mutant (unknown origin) expressed in baculovirus expression system Sf9 cells using Ser/Thr 06 as peptide substrate incubated for 1 hr in presence of ATP by FRET based Z-LYTE assay.
For test [6], the system named is BaF3. Description: Antiproliferative activity against mouse BaF3 cells harbouring CD74-NTRK1 G595R mutant fusion protein incubated for 3 days by CCK8 method. Conditions: BaF3, 72 h. Format: functional, cell-based.
Test [7] concerns BaF3. Description: Antiproliferative activity against mouse BaF3 cells harbouring ETV6-NTRK3 fusion protein incubated for 3 days by CCK8 method. Conditions: BaF3, 72 h.
Test [8] relates to BaF3. Description: Antiproliferative activity against mouse BaF3 cells harbouring CD74-[…] mutant fusion protein incubated for 3 days by CCK8 method. The settings on record: BaF3, 72 h. Format: functional, cell-based.
Test [9] deals with High affinity nerve growth factor receptor (Homo sapiens, UniProt P04629). Description: Inhibition of N-terminal hexa his tagged TRKA (485 to 795 residues) (unknown origin) expressed in baculovirus expression system Sf9 cells using Ser/Thr 06 as peptide substrate incubated for 1 hr in presence of ATP by FRET based Z-LYTE assay.
The subject of test [10] is BaF3. Description: Antiproliferative activity against mouse BaF3 cells harbouring TRKA-F589L fusion protein incubated for 3 days by CCK8 method. The settings on record: BaF3, 72 h.

Chain of High affinity nerve growth factor receptor (Homo sapiens, UniProt P04629, G595R) (P04629 33-796 G595R limits assumed): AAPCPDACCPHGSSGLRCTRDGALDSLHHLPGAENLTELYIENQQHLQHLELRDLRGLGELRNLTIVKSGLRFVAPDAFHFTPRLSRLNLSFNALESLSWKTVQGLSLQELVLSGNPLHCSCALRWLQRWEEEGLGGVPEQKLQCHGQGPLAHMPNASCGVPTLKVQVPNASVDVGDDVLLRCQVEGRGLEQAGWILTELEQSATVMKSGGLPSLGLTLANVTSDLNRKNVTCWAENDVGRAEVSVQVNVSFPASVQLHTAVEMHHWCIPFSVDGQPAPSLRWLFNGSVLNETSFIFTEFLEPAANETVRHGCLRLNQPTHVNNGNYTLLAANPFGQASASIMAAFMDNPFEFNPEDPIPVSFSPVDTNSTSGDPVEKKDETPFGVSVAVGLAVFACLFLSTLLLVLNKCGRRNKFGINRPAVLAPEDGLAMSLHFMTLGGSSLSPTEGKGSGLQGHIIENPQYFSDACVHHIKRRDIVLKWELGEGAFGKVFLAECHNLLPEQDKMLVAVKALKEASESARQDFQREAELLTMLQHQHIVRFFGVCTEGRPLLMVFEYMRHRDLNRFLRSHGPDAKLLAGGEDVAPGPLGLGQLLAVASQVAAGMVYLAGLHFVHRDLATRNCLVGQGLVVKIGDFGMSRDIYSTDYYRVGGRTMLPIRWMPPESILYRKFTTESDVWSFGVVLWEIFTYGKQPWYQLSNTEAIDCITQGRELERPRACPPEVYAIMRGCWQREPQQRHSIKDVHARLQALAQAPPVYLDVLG
Chain of High affinity nerve growth factor receptor (Homo sapiens, UniProt P04629) (P04629 whole entry, the tested form may be a part): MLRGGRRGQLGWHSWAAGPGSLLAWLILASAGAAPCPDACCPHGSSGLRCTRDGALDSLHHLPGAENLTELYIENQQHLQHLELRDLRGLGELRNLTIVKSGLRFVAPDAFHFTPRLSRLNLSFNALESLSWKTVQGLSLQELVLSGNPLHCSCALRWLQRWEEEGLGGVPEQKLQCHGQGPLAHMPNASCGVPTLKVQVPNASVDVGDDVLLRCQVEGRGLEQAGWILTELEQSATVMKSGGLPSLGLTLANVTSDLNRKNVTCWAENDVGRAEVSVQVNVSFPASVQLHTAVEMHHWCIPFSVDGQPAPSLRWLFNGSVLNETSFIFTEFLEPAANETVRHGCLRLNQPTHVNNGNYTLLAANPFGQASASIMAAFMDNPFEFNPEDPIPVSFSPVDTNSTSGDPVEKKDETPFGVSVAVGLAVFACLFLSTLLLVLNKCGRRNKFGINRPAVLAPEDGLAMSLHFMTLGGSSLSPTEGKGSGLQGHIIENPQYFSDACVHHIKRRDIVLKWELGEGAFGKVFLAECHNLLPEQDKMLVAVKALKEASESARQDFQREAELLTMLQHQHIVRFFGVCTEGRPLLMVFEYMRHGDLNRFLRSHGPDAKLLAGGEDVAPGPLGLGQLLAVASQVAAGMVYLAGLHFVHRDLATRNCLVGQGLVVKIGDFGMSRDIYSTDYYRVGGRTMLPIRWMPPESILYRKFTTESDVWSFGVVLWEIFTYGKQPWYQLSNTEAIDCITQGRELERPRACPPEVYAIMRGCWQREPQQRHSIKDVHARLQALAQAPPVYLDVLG
Chain of NT-3 growth factor receptor (Q16288 whole entry): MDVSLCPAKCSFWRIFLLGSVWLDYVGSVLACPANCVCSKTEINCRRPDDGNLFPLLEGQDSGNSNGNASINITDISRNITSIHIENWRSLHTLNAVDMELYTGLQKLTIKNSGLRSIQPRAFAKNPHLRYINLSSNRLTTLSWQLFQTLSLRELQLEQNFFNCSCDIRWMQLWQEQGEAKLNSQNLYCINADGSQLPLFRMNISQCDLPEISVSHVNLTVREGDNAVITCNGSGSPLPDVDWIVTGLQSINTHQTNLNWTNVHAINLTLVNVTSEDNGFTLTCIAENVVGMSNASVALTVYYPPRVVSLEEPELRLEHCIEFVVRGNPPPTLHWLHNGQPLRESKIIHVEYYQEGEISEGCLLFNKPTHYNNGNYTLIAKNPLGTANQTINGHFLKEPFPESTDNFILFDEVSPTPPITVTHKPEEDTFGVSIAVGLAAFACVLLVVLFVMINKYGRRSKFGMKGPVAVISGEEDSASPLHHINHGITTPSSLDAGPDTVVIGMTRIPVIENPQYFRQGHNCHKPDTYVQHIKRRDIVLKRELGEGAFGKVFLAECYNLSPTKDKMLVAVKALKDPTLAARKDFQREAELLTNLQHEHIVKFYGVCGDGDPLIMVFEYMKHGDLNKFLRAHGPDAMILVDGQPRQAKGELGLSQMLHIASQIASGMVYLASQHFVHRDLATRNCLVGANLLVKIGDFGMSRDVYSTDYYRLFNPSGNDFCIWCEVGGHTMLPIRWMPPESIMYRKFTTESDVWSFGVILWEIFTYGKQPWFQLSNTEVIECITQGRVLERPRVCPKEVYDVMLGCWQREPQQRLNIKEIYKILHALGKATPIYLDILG
Chain of High affinity nerve growth factor receptor (Homo sapiens, UniProt P04629, G667C) (P04629 33-796 G667C limits assumed): as the sequence (P04629 33-796 G595R limits assumed) above, with R563G, G635C counted along it

As for `Cc1c2cc(cc1C(=O)Nc1cc(CN3CCN(C)CC3)cc(C(C)C)c1)OCCCCCCCNC(=O)c1ccc3ncc(n3n1)C#C2`, the IC50 (commonly the concentration at which inhibition is half-maximal) came out at 0.0205 µM in the test with BaF3 [1]; 0.0168 µM in test [2]; 0.00283 µM in test [3]; 0.00385 µM with BaF3 [4]; 0.0107 µM in test [5]; 0.0423 µM in the test on BaF3 [6]. For the same compound, the IC50 in the test with BaF3 [7] is 0.104 µM; in the test with BaF3 [8] it was 0.0189 µM; in test [9], 0.00785 µM; in the test with BaF3 [10] it was 0.0327 µM.
Take `Cc1c2cc(cc1C(=O)Nc1cc(CN3CCN(C)CC3)cc(C(C)(C)C)c1)OCCCCCCCNC(=O)c1ccc3ncc(n3n1)C#C2`: the IC50 amounted to 0.0345 µM in the test with BaF3 [1]; 0.00306 µM in test [2]; 0.00522 µM in [3]; 0.00596 µM in the test on BaF3 [4]; 0.0306 µM in test [5]; 0.0656 µM in the test with BaF3 [6]. Further, the IC50 in the test with BaF3 [7] stood at 0.161 µM; in the test on BaF3 [8], 0.0122 µM; in test [9], 0.019 µM; in the test on BaF3 [10] it was 0.0454 µM.
As for `Cc1c2cc(cc1C(=O)Nc1cc(N3CCC(N4CCOCC4)CC3)cc(C(F)(F)F)c1)OCCCCCCCNC(=O)c1ccc3ncc(n3n1)C#C2`, the IC50 in the test with BaF3 [1] was 0.0511 µM; in test [2], 0.00335 µM; in test [3] it was 0.00851 µM; in the test on BaF3 [4], 0.00378 µM; in test [5], 0.109 µM; in the test with BaF3 [6], 0.0677 µM. For the same compound, the IC50 in the test with BaF3 [7] is 0.0295 µM; in test [9], 0.0261 µM; in the test with BaF3 [10] it was > 1 µM.

The values above are taken from ChEMBL document CHEMBL5365464, “Structure-Based Optimization of the Third Generation Type II Macrocycle TRK Inhibitors with Improved Activity against Solvent-Front, xDFG, and Gatekeeper Mutations” (J Med Chem, 2023).
